Tested on: YAP/TAZ-TEAD transcription
Assay: Reporter gene assay for measuring the inhibition of YAP/TAZ-TEAD transcription (TEAD-responsive element luciferase reporter in Hek293T cells)
Format: cell-based
Details: Hek293T cells transiently transfected with TEAD-responsive element luciferase reporter, 24 hours incubation
Description: Hek293T cells are cultured in DMEM supplemented with 10% fetal bovine serum, Sodium pyruvate, Sodium bicarbonate, L-glutamine. The cells are harvested and transiently transfected with TEAD-responsive element luciferase reporter. Transfected cells are plated in 384-wells plate containing pre-diluted compounds. After 24 hours incubation at 37° C./5%CO2, assay plates were cooled down to RT and levelled to an equal volume per well, prior to the addition of 25 uL luciferase substrate SteadyLite (Perkin Elmer)/well. The plate was shaken for 10 min at 600 rpm, centrifuged for 1min at 500 rpm and measured with an Envision reader (PerkinElmer). The amount of relative light units produced by the TEAD reporter is used to calculated percent of inhibition.
The percent of reporter inhibition was calculated in the presence of a positive control inhibitor (100% inhibition) versus a condition with the presence of the vehicle basal activity of the reporter (0% inhibition). The ability of a test compound to inhibit this activity was determined as:
Percentage inhibition=[1-((RLU determined in the presence of vehicle—RLU determined for sample with test compound present) divided by (RLU determined in the presence of vehicle — RLU determined for sample with positive control inhibitor))] * 100
The activities of the example compounds tested are depicted in the table below. The activity ranges A, B and C refer to EC50 values in the reporter gene assay as described as follows: “A”: EC50 <1 μM; “B” : 1 μM≤EC50≤20 μM and “C” : EC50>20 μM, NT=not tested.

SMILES	EC50 (Homo sapiens, HEK-293T, 24 h) [nM]	EC50 [nM]
C=CC(=O)NCC1CN(c2ccc(Br)cc2)c2ccnn2C1 (single isomer, unassigned) [Cpd. No. 021-En1, (R)- or (S)-N-((4-(4-bromophenyl)-4,5,6,7-tetrahydropyrazolo[1,5-a]pyrimidin-6-yl)methyl)acrylamide]	< 1000	
N#CCC(=O)NCC1CN(c2ccc(C(F)(F)F)cc2)c2ccnn2C1 (stereo not drawn) [Cpd. No. 042, 2-cyano-N-((4-(4-(trifluoromethyl)phenyl)-4,5,6,7-tetrahydropyrazolo[1,5-a]pyrimidin-6-yl)methyl)acetamide]	> 20000	
C=CC(=O)NCC1CN(c2ccc(F)cc2)c2ccnn2C1 (single isomer, unassigned) [Cpd. No. 006-En1, (R)- or (S)-N-((4-(4-fluorophenyl)-4,5,6,7-tetrahydropyrazolo[1,5-a]pyrimidin-6-yl)methyl)acrylamide]		1000 to 20000
CCC(=O)NCC1Cc2nn(C)cc2N(c2ccc(C(F)(F)F)cc2)C1 (stereo not drawn) [Cpd. No. 073, N-((2-methyl-4-(4-(trifluoromethyl)phenyl)-4,5,6,7-tetrahydro-2H-pyrazolo[4,3-b]pyridin-6-yl)methyl)propionamide]	< 1000	
C=CC(=O)NCC1CN(c2ccc(OC(F)(F)F)cc2)c2cc(C)nn2C1 (stereo not drawn) [Cpd. No. 030, N-((2-methyl-4-(4-(trifluoromethoxy)phenyl)-4,5,6,7-tetrahydropyrazolo[1,5-a]pyrimidin-6-yl)methyl)acrylamide]	< 1000	
C=CC(=O)NCC1CN(CC2CCCCC2)c2ccnn2C1 (stereo not drawn) [Cpd. No. 055, N-((4-(cyclohexylmethyl)-4,5,6,7-tetrahydropyrazolo[1,5-a]pyrimidin-6-yl)-methyl)acrylamide]	< 1000	
C=CC(=O)NCC1CN(c2ccc(C(F)(F)F)cc2)c2cc(C)nn2C1 (single isomer, unassigned) [Cpd. No. 029-En1, (R)- or (S)-N-((2-methyl-4-(4-(trifluoromethyl)phenyl)-4,5,6,7-tetrahydropyrazolo[1,5-a]pyrimidin-6-yl)methyl)acrylamide]		< 1000
CS(=O)(=O)NC1CN(c2ccc(C(F)(F)F)cc2)c2ccnn2C1 (stereo not drawn) [Cpd. No. 067, N-(4-(4-(trifluoromethyl)phenyl)-4,5,6,7-tetrahydropyrazolo[1,5-a]pyrimidin-6-yl)methanesulfonamide]	> 20000	
C=CC(=O)NCC1CN(c2ccc(C(F)(F)F)cc2)c2cc(C#N)nn2C1 (single isomer, unassigned) [Cpd. No. 033-En2, (R)- or (S)-N-((2-cyano-4-(4-(trifluoromethyl)phenyl)-4,5,6,7-tetrahydropyrazolo[1,5-a]pyrimidin-6-yl)methyl)acrylamide]		< 1000
C=CC(=O)NCC1CN(c2ccc(OC(F)(F)F)cc2)c2cc(C(F)(F)F)nn2C1 (single isomer, unassigned) [Cpd. No. 035-En1, (R)- or (S)-N-((4-(4-(trifluoromethoxy)phenyl)-2-(trifluoromethyl)-4,5,6,7-tetrahydropyrazolo[1,5-a]pyrimidin-6-yl)methyl)acrylamide]	< 1000	
Cn1ncc2c1CC(CNS(C)(=O)=O)CN2c1ccc(OC(F)(F)F)cc1 (stereo not drawn) [Cpd. No. 078, N-((1-methyl-4-(4-(trifluoromethoxy)phenyl)-4,5,6,7-tetrahydro-1H-pyrazolo[4,3-b]pyridin-6-yl)methyl)methanesulfonamide]	> 20000	
C=CC(=O)NCC1CN(c2ccc(C(F)(F)F)cc2)c2cc(C#N)nn2C1 (single isomer, unassigned) [Cpd. No. 033-En1, (R)- or (S)-N-((2-cyano-4-(4-(trifluoromethyl)phenyl)-4,5,6,7-tetrahydropyrazolo[1,5-a]pyrimidin-6-yl)methyl)acrylamide]		1000 to 20000
C=CC(=O)NCC1CN(S(=O)(=O)c2ccc(C(F)(F)F)cc2)c2ccnn2C1 (stereo not drawn) [Cpd. No. 045, N-((4-((4-(trifluoromethyl)phenyl)sulfonyl)-4,5,6,7-tetrahydropyrazolo[1,5-a]pyrimidin-6-yl)methyl)acrylamide]		> 20000
C=CC(=O)NCC1CN(C2CCCCC2)c2ccnn2C1 (stereo not drawn) [Cpd. No. 037, N-((4-cyclohexyl-4,5,6,7-tetrahydropyrazolo[1,5-a]pyrimidin-6-yl)methyl)acrylamide]	< 1000	
C=CC(=O)NCC1CN(c2ccc(C(F)F)cc2)c2ccnn2C1 (stereo not drawn) [Cpd. No. 009, N-((4-(4-(difluoromethyl)phenyl)-4,5,6,7-tetrahydropyrazolo[1,5-a]pyrimidin-6-yl)methyl)acrylamide]	< 1000	
C=CC(=O)NCC1CN(c2ccc(Cl)cc2)c2ccnn2C1 (single isomer, unassigned) [Cpd. No. 005-En1, (R)- or (S)-N-((4-(4-chlorophenyl)-4,5,6,7-tetrahydropyrazolo[1,5-a]pyrimidin-6-yl)methyl)acrylamide]		< 1000
CCC(=O)NCC1Cc2nn(Cc3cccc(C(N)=O)c3)cc2N(c2ccc(C(F)(F)F)cc2)C1 (stereo not drawn) [Cpd. No. 083, 3-((6-(propionamide-methyl)-4-(4-(trifluoromethyl)phenyl)-4,5,6,7-tetrahydro-2H-pyrazolo[4,3-b]pyridin-2-yl)methyl)benzamide]		> 20000
CCC(=O)NCC1Cc2c(cnn2Cc2cccc(C(N)=O)c2)N(c2ccc(C(F)(F)F)cc2)C1 (stereo not drawn) [Cpd. No. 082, 3-((6-(propionamide-methyl)-4-(4-(trifluoromethyl)phenyl)-4,5,6,7-tetrahydro-1H-pyrazolo[4,3-b]pyridin-1-yl)methyl)benzamide]		< 1000
C=CC(=O)NCC1CN(c2ccc(C(F)(F)F)cc2)c2ccnn2C1 (single isomer, unassigned) [Cpd. No. 002-En1, (R)- or (S)-N-((4-(4-(trifluoromethyl)phenyl)-4,5,6,7-tetrahydropyrazolo[1,5-a]pyrimidin-6-yl)methyl)acrylamide]		< 1000
CCC(=O)NCC1Cc2c(cnn2C)N(c2ccc(OC(F)(F)F)cc2)C1 (stereo not drawn) [Cpd. No. 074, N-((1-methyl-4-(4-(trifluoromethoxy)phenyl)-4,5,6,7-tetrahydro-1H-pyrazolo[4,3-b]pyridin-6-yl)methyl)propionamide]	> 20000	
CCC(=O)NCC1Cc2nn(C)cc2N(c2ccc(OC(F)(F)F)cc2)C1 (stereo not drawn) [Cpd. No. 075, N-((2-methyl-4-(4-(trifluoromethoxy)phenyl)-4,5,6,7-tetrahydro-2H-pyrazolo[4,3-b]pyridin-6-yl)methyl)propionamide]	1000 to 20000	
C=CC(=O)NCC1CN(c2cccc(F)c2)c2ccnn2C1 (single isomer, unassigned) [Cpd. No. 004-En1, (R)- or (S)-N-((4-(3-fluorophenyl)-4,5,6,7-tetrahydropyrazolo[1,5-a]pyrimidin-6-yl)methyl)acrylamide]		1000 to 20000
CS(=O)(=O)N1CCC2(CN(c3ccc(C(F)(F)F)cc3)c3ccnn3C2)C1=O (single isomer, unassigned) [Cpd. No. 089-En2, (R)- or (S)-1′-(methylsulfonyl)-4-(4-(trifluoromethyl)phenyl)-4,5-dihydro-7H-spiro[pyrazolo[1,5-a]pyrimidine-6,3′-pyrrolidin]-2′-one]		> 20000
C=CC(=O)NCC1CN(c2ccc(-c3ccccc3)cc2)c2ccnn2C1 (single isomer, unassigned) [Cpd. No. 017-En1, (R)- or (S)-N-((4-([1,1′-biphenyl]-4-yl)-4,5,6,7-tetrahydropyrazolo[1,5-a]pyrimidin-6-yl)methyl)acrylamide]		> 20000
C=CC(=O)NCC1CN(c2ccc(C(F)(F)F)cc2)c2cc(C3CC3)nn2C1 (single isomer, unassigned) [Cpd. No. 031-En2, (R)- or (S)-N-((2-cyclopropyl-4-(4-(trifluoromethyl)phenyl)-4,5,6,7-tetrahydropyrazolo[1,5-a]pyrimidin-6-yl)methyl)acrylamide]		< 1000
C=CC(=O)NCC1CN(c2ccc(Cl)cc2)c2ccnn2C1 (single isomer, unassigned) [Cpd. No. 005-En2, (R)- or (S)-N-((4-(4-chlorophenyl)-4,5,6,7-tetrahydropyrazolo[1,5-a]pyrimidin-6-yl)methyl)acrylamide]		< 1000
C=CC(=O)NCC1CN(S(=O)(=O)c2ccc(C(F)(F)F)cc2)c2ccnn2C1 (stereo not drawn) [Cpd. No. 045-En2, N-((4-((4-(trifluoromethyl)phenyl)sulfonyl)-4,5,6,7-tetrahydropyrazolo[1,5-a]pyrimidin-6-yl)methyl)acrylamide]		> 20000
C=CC(=O)NCC1CN(c2ccc3scnc3c2)c2ccnn2C1 (single isomer, unassigned) [Cpd. No. 026-En1, (R)- or (S)-N-((4-(benzo[d]thiazol-5-yl)-4,5,6,7-tetrahydropyrazolo[1,5-a]pyrimidin-6-yl)methyl)acrylamide]	1000 to 20000	
C=CC(=O)NCC1CN(c2ccc(F)cc2)c2ccnn2C1 (stereo not drawn) [Cpd. No. 006, N-((4-(4-fluorophenyl)-4,5,6,7-tetrahydropyrazolo[1,5-a]pyrimidin-6-yl)methyl)acrylamide]	< 1000	
CCC(=O)NCC1CN(c2ccc(C(F)(F)F)cc2)c2ccnn2C1 (single isomer, unassigned) [Cpd. No. 028-En1, (R)- or (S)-N-((4-(4-(trifluoromethyl)phenyl)-4,5,6,7-tetrahydropyrazolo[1,5-a]pyrimidin-6-yl)methyl)propionamide]		> 20000
